For 13 compounds, Papp results are on record in patent publication US20230096766A1, “AMINO ACID HAVING FUNCTIONAL GROUP CAPABLE OF INTERMOLECULAR HYDROGEN BONDING, PEPTIDE COMPOUND CONTAINING SAME AND METHOD FOR PRODUCTION THEREOF” (Chugai Seiyaku Kabushiki Kaisha, priority 2018, published 2023).

In general, Papp refers to a coefficient for how fast a substance crosses the barrier. A higher Papp goes with fast passage.

*1 amine or outer side, *2 acyl side, *3 side chain or, on linkers, in order; H or OH if unused. Where a SMILES comes first, the peptide text is derived from it. Bridges are numbered along the chain shown (N, C = ends). [ ]: non-standard residue; d: D form. The star is where a group is joined. dhPhe(4-CONHMe,3-OMe) = CNC(=O)c1ccc(CC[C@@H](N)C(=O)O)cc1OC; X14 = CC(C)[C@H](CC(=O)[C@H](Cc1ccccc1)N(C)[*:1])C(=O)[*:2]; Phe(3-OMe,4-CONHMe) = CNC(=O)c1ccc(C[C@H](N)C(=O)O)cc1OC; Phe(4-COOH) = N[C@@H](Cc1ccc(C(=O)O)cc1)C(=O)O; X18 = NN([C@@H](Cc1cccc(Cl)c1)C(=O)[*:2])[*:1]; NMePhe(3-Cl) = CN[C@@H](Cc1cccc(Cl)c1)C(=O)O; NMeF = CN[C@@H](Cc1ccccc1)C(=O)O; NMeGABA = CN(CCCC(=O)[*:2])[*:1]; NMeI = CC[C@H](C)[C@H](NC)C(=O)O; CH2CH(OH)CF3 = OC(C*)C(F)(F)F; CH2CONHtBu = CC(C)(C)NC(=O)C*; NMeL = CN[C@@H](CC(C)C)C(=O)O; Propyl(2R-OH) = C[C@@H](O)C*; Butyl(3S-OH) = C[C@H](O)CC*; NMeV = CN[C@H](C(=O)O)C(C)C; NMeAbu = CC[C@H](NC)C(=O)O; NMeA = CN[C@@H](C)C(=O)O; Piperidide = C1CCN(*)CC1; CH2CMe2OH = CC(C)(O)C*; NBuGly = CCCCNCC(=O)O; NPrGly = CCCNCC(=O)O; Propyl(3-OH) = OCCC*; N(OH)Me = CN(O)*; X3 = C[C@H](O)C*; Sar = CNCC(=O)O; tBu = CC(C)(C)*

One series can be described thus: in vitro. The conditions noted are these: human, Caco-2, Caco-2 (cm/sec).
Turning to `CCCN1CC(=O)N(C)[C@@H](CC(C)C)C(=O)N[C@H](C(=O)N2CCCCC2)CC(=O)N(C)[C@@H](C)C(=O)N[C@@H](COCC(C)(C)O)C(=O)N(C)[C@@H](CC(C)C)C(=O)N(C)[C@@H](Cc2ccccc2)C(=O)N[C@@H](CC(C)C)C(=O)N(C)[C@@H](Cc2ccccc2)C(=O)N(C)[C@@H]([C@@H](C)CC)C(=O)N[C@@H]([C@@H](C)O)C1=O` [AP05] ([NMeA]S(CH2CMe2OH)[NMeL][NMeF]L[NMeF][NMeI]T[NPrGly][NMeL]D-Piperidide; lactam N-11), the Papp came out at 2.8 ×10⁻⁶ cm/s.
Same read-out and setting: next, `CCCCN1CC(=O)N(C)[C@@H](CC(C)C)C(=O)N[C@@H](COCCCO)C(=O)N(C)[C@@H](Cc2cccc(Cl)c2)C(=O)N(C)[C@@H](CC(C)C)C(=O)N[C@H](C(=O)N2CCCCC2)CC(=O)N[C@H](C(C)C)C(=O)N(C)[C@@H](Cc2ccccc2)C(=O)N[C@@H](CC(C)C)C(=O)N(C)[C@@H](CC(C)C)C(=O)N[C@@H]([C@@H](C)O)C1=O` [AP98] ([dV][NMeF]L[NMeL]T[NBuGly][NMeL]S(Propyl(3-OH))[NMePhe(3-Cl)][NMeL]D-Piperidide; lactam N-11): 0.16 ×10⁻⁶ cm/s.
Same read-out and setting: then `CC[C@H](C)[C@@H]1NC(=O)[C@H](CC(C)C)N(C)C(=O)CCCN(C)C(=O)C[C@@H](C(=O)N2CCCCC2)NC(=O)[C@H](CC(C)C)N(C)C(=O)[C@H](CC(C)C)N(C)C(=O)[C@H]([C@@H](C)O)NC(=O)[C@H](CC(C)C)N(C)C(=O)[C@H](Cc2ccc(C(=O)NC)c(OC)c2)NC(=O)[C@H](CC(C)C)N(C)C(=O)[C@H](Cc2ccccc2)N(C)C1=O` [AP30] ([NMeGABA][NMeL]I[NMeF][NMeL][Phe(3-OMe,4-CONHMe)][NMeL]T[NMeL][NMeL]D-Piperidide; lactam N-11), with 0.19 ×10⁻⁶ cm/s; and `CCCCN1CC(=O)N(C)[C@@H](Cc2ccccc2)C(=O)N[C@@H]([C@@H](C)CC)C(=O)N(C)[C@@H](CC(C)C)C(=O)N[C@@H]([C@@H](C)O)C(=O)N(CCC)CC(=O)N(C)[C@@H](Cc2ccccc2)C(=O)N(C)[C@@H](CC(C)C)C(=O)N[C@@H](COCC(=O)NC(C)(C)C)C(=O)N(C)[C@@H](C)C(=O)N[C@H](C(=O)N2CCCCC2)CC1=O` [AP18] ([NBuGly][NMeF]I[NMeL]T[NPrGly][NMeF][NMeL]S(CH2CONHtBu)[NMeA]D-Piperidide; lactam N-11), with 1 ×10⁻⁶ cm/s; and `CC[C@H](C)[C@@H]1NC(=O)[C@H](CC(C)C)N(C)C(=O)CCCN(C)C(=O)C[C@@H](C(=O)N2CCCCC2)NC(=O)[C@H](CC(C)C)N(C)C(=O)[C@H](CC(C)C)N(C)C(=O)[C@H]([C@@H](C)O)NC(=O)[C@H](CC(C)C)N(C)C(=O)[C@H](Cc2ccc(C(=O)N(C)O)cc2)NC(=O)[C@H](CC(C)C)N(C)C(=O)[C@H](Cc2ccccc2)N(C)C1=O` [AP251] ([NMeGABA][NMeL]I[NMeF][NMeL][Phe(4-COOH)](N(OH)Me)[NMeL]T[NMeL][NMeL]D-Piperidide; lactam N-11), with 0.03 ×10⁻⁶ cm/s.
With `CC[C@H]1C(=O)N[C@@H](CC(C)C)C(=O)N(C)[C@@H](CC(C)C)C(=O)N(C)[C@@H](Cc2ccccc2)C(=O)N[C@H](CCc2ccc(C(=O)NC)c(OC)c2)C(=O)N(C)[C@@H](CC(C)C)C(=O)N(C)[C@@H](CC(C)C)C(=O)N[C@@H]([C@@H](C)O)C(=O)N(C)CC(=O)N(C)[C@@H](CC(C)C)C(=O)N[C@H](C(=O)N2CCCCC2)CC(=O)N1C` [AP212] ([NMeAbu]L[NMeL][NMeF][dhPhe(4-CONHMe,3-OMe)][NMeL][NMeL]T[Sar][NMeL]D-Piperidide; lactam N-11), the Papp is 0.64 ×10⁻⁶ cm/s.
On to `CC[C@H](C)[C@H]1C(=O)N[C@@H]([C@@H](C)O)C(=O)N(C)CC(=O)N(C)[C@@H](CC(C)C)C(=O)N[C@H](C(=O)N2CCCCC2)CC(=O)N(C)[C@@H](C(C)C)C(=O)N[C@@H](COC[C@H](C)O)C(=O)N(C)[C@@H](CC(C)C)C(=O)N(C)[C@@H](Cc2cccc(Cl)c2)C(=O)N[C@@H](CC(C)C)C(=O)N(C)[C@@H](Cc2ccccc2)C(=O)N1C` [AP69] ([NMeV]S(X3)[NMeL][NMePhe(3-Cl)]L[NMeF][NMeI]T[Sar][NMeL]D-Piperidide; lactam N-11), for which the Papp was 0.7 ×10⁻⁶ cm/s.
On to `CC[C@H]1C(=O)N[C@@H](CC(C)C)C(=O)N(C)[C@@H](CC(C)C)C(=O)N(C)[C@@H](Cc2ccccc2)C(=O)N[C@@H](Cc2ccc(O)cc2)C(=O)N(C)[C@@H](CC(C)C)C(=O)N(C)[C@@H](CC(C)C)C(=O)N[C@@H]([C@@H](C)O)C(=O)N(C)CC(=O)N(C)[C@@H](CC(C)C)C(=O)N[C@H](C(=O)N2CCCCC2)CC(=O)N1C` [Compound F05] ([NMeAbu]L[NMeL][NMeF]Y[NMeL][NMeL]T[Sar][NMeL]D-Piperidide; lactam N-11), for which the Papp amounted to 0.38 ×10⁻⁶ cm/s.
Same read-out and setting: next, `CCCCN1CC(=O)N(C)[C@@H](CC(C)C)C(=O)N[C@@H](COC[C@@H](C)O)C(=O)N(C)[C@@H](Cc2cccc(Cl)c2)C(=O)N(C)[C@@H](C(C)C)C(=O)N[C@H](C(=O)N2CCCCC2)CC(=O)N[C@H](C(C)C)C(=O)N(C)[C@@H](Cc2ccccc2)C(=O)N[C@@H](CC(C)C)C(=O)N(C)[C@@H](CC(C)C)C(=O)N[C@@H]([C@@H](C)O)C1=O` [AP80] ([dV][NMeF]L[NMeL]T[NBuGly][NMeL]S(Propyl(2R-OH))[NMePhe(3-Cl)][NMeV]D-Piperidide; lactam N-11): 0.36 ×10⁻⁶ cm/s.
`CCCCN1CC(=O)N(C)[C@@H](CC(C)C)C(=O)N[C@H](C(=O)N2CCCCC2)CC(=O)N(C)[C@@H](C)C(=O)N[C@@H](COC[C@@H](C)O)C(=O)N(C)[C@@H](CC(C)C)C(=O)N(C)[C@@H](Cc2cccc(Cl)c2)C(=O)N[C@@H](CC(C)C)C(=O)N(C)[C@@H](Cc2ccccc2)C(=O)N(C)[C@@H]([C@@H](C)CC)C(=O)N[C@@H]([C@@H](C)O)C1=O` [AP75] ([NMeA]S(Propyl(2R-OH))[NMeL][NMePhe(3-Cl)]L[NMeF][NMeI]T[NBuGly][NMeL]D-Piperidide; lactam N-11) registered a Papp of 1.1 ×10⁻⁶ cm/s. This Papp lies about 3.1-fold higher than the previous one.
Still for that read-out and setting: next, `CCCCN1CC(=O)N(C)[C@@H](Cc2ccccc2)C(=O)N(C)[C@@H](C(C)C)C(=O)N[C@@H](COC(C)(C)C)C(=O)N(C)[C@@H](CC(C)C)C(=O)N[C@H](C(=O)N2CCCCC2)CC(=O)N(C)CC(=O)N(N)[C@@H](Cc2cccc(Cl)c2)C(=O)N[C@@H](COCC[C@H](C)O)C(=O)N(C)[C@@H](CC(C)C)C(=O)N[C@@H]([C@@H](C)O)C1=O` [AP105] ([Sar][X18]S(Butyl(3S-OH))[NMeL]T[NBuGly][NMeF][NMeV]S(tBu)[NMeL]D-Piperidide; lactam N-11): 0.55 ×10⁻⁶ cm/s.
`CCCCN1CC(=O)N(C)[C@@H](CC(C)C)C(=O)N[C@H](C(=O)N2CCCCC2)CC(=O)N(C)[C@@H](C(C)C)C(=O)N[C@@H](COCCCO)C(=O)N(C)[C@@H](CC(C)C)C(=O)N(C)[C@@H](Cc2ccccc2)C(=O)C[C@@H](C(C)C)C(=O)N(C)[C@@H](Cc2ccccc2)C(=O)N(C)[C@@H](CC(C)C)C(=O)N[C@@H]([C@@H](C)O)C1=O` [AP93] ([NMeV]S(Propyl(3-OH))[NMeL][X14][NMeF][NMeL]T[NBuGly][NMeL]D-Piperidide; lactam N-10) returned a Papp of 1.1 ×10⁻⁶ cm/s.

Staying with this series, now noted: human, Caco-2, Caco-2 (membrane permeability).
`CC[C@H](C)[C@H]1C(=O)N[C@@H]([C@@H](C)O)C(=O)N(C)CC(=O)N(C)[C@@H](CC(C)C)C(=O)N[C@H](C(=O)N2CCCCC2)CC(=O)N(C)[C@@H](C(C)C)C(=O)N[C@@H](CC(C)C)C(=O)N(C)[C@@H](CC(C)C)C(=O)N(C)[C@@H](Cc2ccccc2)C(=O)N[C@@H](COCC(O)C(F)(F)F)C(=O)N(C)[C@@H](Cc2ccccc2)C(=O)N1C` (stereo partly drawn) [Compound C05] ([NMeV]L[NMeL][NMeF]S(CH2CH(OH)CF3)[NMeF][NMeI]T[Sar][NMeL]D-Piperidide; lactam N-11) displayed an apparent permeability (Papp) of 0.57 ×10⁻⁶ cm/s.
